Laboratory results as given in ChEMBL document CHEMBL1149139, “Azasugar-based MMP/ADAM inhibitors as antipsoriatic agents” (J Med Chem, 2004).

Columns and labels:
Stromelysin-1 = Stromelysin-1 (Homo sapiens, UniProt P08254); assay: Inhibition of human recombinant matrix metalloprotease 3
Interstitial collagenase = target: T1, Interstitial collagenase (Homo sapiens, UniProt P03956); assay: Inhibition of human recombinant matrix metalloprotease 1
T1 sequence (P03956 whole entry): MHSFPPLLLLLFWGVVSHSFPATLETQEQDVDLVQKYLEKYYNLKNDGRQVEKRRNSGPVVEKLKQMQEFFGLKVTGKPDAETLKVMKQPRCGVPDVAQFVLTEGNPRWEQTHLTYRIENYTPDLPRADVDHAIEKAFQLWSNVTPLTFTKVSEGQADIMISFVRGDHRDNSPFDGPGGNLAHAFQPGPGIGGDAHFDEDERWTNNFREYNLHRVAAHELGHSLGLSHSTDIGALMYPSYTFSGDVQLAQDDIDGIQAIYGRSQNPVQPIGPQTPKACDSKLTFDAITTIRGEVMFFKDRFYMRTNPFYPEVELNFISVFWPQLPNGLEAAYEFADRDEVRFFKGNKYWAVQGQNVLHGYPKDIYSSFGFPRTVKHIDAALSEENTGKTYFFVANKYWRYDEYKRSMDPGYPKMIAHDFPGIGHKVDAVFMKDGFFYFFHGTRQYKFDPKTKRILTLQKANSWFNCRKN

[1] = target: T2, Disintegrin and metalloproteinase domain-containing protein 17 (Homo sapiens, UniProt P78536); assay: Inhibition of human tumor necrosis factor alpha converting enzyme
[2] = target: T2, Disintegrin and metalloproteinase domain-containing protein 17; assay: Inhibition of heparin-binding HB-EGF shedding
[3] = target: Matrix metalloproteinase-9 (Homo sapiens, UniProt P14780); assay: Inhibition of human recombinant matrix metalloprotease 9
Matrix metalloproteinase-9, sequence (P14780 whole entry): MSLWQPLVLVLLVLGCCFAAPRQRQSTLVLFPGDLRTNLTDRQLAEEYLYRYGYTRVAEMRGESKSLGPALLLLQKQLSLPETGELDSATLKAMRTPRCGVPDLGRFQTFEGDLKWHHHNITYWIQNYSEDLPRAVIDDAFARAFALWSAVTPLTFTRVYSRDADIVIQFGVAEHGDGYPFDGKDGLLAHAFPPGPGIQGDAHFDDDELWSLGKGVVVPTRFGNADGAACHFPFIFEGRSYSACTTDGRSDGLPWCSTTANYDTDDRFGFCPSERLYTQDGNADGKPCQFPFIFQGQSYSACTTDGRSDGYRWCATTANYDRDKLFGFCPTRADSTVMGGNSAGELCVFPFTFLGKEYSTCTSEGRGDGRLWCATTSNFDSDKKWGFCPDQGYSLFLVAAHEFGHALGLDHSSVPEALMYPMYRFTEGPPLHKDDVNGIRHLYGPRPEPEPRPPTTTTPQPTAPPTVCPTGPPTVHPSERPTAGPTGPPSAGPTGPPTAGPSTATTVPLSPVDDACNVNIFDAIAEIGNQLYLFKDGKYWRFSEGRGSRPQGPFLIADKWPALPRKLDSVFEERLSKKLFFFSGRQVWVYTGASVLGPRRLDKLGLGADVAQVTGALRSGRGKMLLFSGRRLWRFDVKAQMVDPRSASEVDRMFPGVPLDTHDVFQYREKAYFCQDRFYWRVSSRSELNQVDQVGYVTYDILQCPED

T2 sequence (P78536 whole entry, the tested form may be a part): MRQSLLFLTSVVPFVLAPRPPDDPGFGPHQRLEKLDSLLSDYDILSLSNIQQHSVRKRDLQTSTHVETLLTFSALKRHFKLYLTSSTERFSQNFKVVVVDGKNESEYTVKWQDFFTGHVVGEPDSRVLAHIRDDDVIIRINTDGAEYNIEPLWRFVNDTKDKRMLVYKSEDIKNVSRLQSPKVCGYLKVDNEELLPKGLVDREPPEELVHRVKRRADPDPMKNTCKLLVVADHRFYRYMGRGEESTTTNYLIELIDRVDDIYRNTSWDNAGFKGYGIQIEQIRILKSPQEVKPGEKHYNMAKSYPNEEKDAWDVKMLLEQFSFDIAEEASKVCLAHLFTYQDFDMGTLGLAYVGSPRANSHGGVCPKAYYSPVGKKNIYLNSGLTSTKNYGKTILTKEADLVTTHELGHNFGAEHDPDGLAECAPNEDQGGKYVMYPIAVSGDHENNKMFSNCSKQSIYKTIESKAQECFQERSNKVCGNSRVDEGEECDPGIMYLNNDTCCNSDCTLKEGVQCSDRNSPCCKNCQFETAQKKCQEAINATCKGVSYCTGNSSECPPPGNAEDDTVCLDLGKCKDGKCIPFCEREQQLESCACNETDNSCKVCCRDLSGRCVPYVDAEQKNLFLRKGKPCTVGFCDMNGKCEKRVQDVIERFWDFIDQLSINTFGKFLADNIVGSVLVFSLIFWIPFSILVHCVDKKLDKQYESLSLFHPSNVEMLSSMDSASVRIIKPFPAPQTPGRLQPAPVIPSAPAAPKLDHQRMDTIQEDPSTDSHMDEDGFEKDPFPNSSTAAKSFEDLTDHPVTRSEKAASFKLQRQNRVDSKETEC
Stromelysin-1, sequence (P08254 whole entry): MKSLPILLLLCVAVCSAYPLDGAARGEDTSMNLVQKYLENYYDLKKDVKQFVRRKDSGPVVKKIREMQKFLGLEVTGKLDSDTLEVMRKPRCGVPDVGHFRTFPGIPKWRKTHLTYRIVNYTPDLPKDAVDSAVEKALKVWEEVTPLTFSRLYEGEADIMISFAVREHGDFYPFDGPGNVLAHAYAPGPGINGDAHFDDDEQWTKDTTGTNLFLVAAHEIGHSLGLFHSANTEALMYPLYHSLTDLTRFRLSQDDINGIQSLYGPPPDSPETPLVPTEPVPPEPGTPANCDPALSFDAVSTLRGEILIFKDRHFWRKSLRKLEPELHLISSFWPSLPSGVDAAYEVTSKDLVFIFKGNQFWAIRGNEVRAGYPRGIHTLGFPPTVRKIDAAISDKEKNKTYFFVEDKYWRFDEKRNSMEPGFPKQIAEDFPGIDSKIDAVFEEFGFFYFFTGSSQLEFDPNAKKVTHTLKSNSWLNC

Row | SMILES | IC50 [2] | Ki (Stromelysin-1) | Ki (Interstitial collagenase) | Ki [1] | Ki [3]
1 | O=C(NO)[C@H]1[C@@H](O)[C@H](O)[C@H](O)CN1S(=O)(=O)c1ccc(OCc2ccccc2)cc1 | 84 nM | 2.1 nM | > 850 nM | 1.7 nM | 7.4 nM
2 | O=C(NO)[C@H]1[C@@H](O)[C@H](O)[C@H](O)CN1S(=O)(=O)c1ccc(-c2ccccc2)cc1 | 21000 nM | 50 nM | 162 nM | 21 nM | 47 nM

Continued, in another order:

Row | IC50 [2] | SMILES | Ki (Stromelysin-1) | Ki (Interstitial collagenase) | Ki [1] | Ki [3]
3 | 340 nM | O=C(NO)[C@H]1[C@@H](O)[C@H](O)[C@H](O)CN1S(=O)(=O)c1ccc(Oc2ccccc2)cc1 | 0.35 nM | 5.3 nM | 6.2 nM | –
4 | 450 nM | COc1ccc(S(=O)(=O)N2C[C@@H](O)[C@@H](O)[C@H](O)[C@@H]2C(=O)NO)cc1 | – | 26 nM | 15 nM | –
5 | 350 nM | O=C(NO)[C@H]1[C@@H](O)[C@H](O)[C@@H](O)CN1S(=O)(=O)c1ccc(Oc2ccccc2)cc1 | – | – | – | –
